Read-outs that look alike come from different tables or passages of the source.
Experiments:
[1] = system: locomotor activity in mice; assay: Inhibition of locomotor activity in mice; type: in vivo; settings: Mus musculus, IP
Method: (§1) The compounds of Formula I are valuable dopaminergic agents. […] Thus, the compounds of Formula I were tested for their ability to inhibit locomotor activity in mice according to the assay described by J. R. McLean, et al, Pharmacology, Biochemistry and Behavior, Volume 8, pages 97-99 (1978); for their ability to inhibit [^3 H]-spiroperidol binding in a receptor assay described by D. Grigoriadis and P. Seeman, Journal of Neurochemistry, Volume 44, pages 1925-1935 (1985); and for their ability to inhibit dopamine synthesis in rats according to the protocol described by J. R. Walters and R. H. Roth, Naunyn-Schmiedeberg's Archives of Pharmacology, Volume 296, pages 5-14 (1976). The above test methods are incorporated herein by reference. The data in the table show the dopaminergic activity of representative compounds of Formula I.

[2] = molecular target: T1, [^3 H]-spiroperidol binding (Rattus norvegicus, UniProt P61169); assay: Inhibition of [^3 H]-spiroperidol binding in a receptor assay
T1 construct: from tissue; host or cells: brain striatum (own knowledge from the cited method)
Method: as §1

[3] = system: Brain Dopamine Synthesis; assay: Inhibition of dopamine synthesis in rats (reversal of brain dopamine synthesis); type: in vivo; settings: Rattus norvegicus, IP
Method: as §1

[4] = read-out: Inhibition of [^3 H]Spiroperidol Binding IC50

T1 sequence (P61169 whole entry): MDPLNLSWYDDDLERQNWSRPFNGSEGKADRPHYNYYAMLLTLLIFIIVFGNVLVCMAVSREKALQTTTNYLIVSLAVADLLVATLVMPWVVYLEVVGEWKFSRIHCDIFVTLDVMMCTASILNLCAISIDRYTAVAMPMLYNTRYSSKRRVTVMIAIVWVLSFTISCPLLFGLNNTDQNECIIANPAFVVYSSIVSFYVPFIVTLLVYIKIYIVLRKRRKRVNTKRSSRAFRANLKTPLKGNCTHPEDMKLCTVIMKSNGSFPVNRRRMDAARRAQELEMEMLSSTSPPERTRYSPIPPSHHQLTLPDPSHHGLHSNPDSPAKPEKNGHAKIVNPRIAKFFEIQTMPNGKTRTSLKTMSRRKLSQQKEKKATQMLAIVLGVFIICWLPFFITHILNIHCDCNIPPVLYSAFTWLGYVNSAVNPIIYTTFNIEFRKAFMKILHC

Structure (SMILES) | ED50 [1] [mg/kg] | IC50 [2] [nM] | inhibition in vivo at 10 mg/kg [3] [%] | IC50 [2, 4] [nM]
C1=C(c2ccccc2)CCN(CCCCc2ccncc2)C1 [Example 1, 4-[4-(3,6-Dihydro-4-phenyl-1(2H)-pyridinyl)butyl]-pyridine] | 0.6 | 96 | 87 | –
C1=C(c2ccccn2)CCN(CCCCc2ccncc2)C1 [Example 2, 2-[1,2,3,6-Tetrahydro-1-[4-(4-pyridinyl)butyl]-4-pyridinyl]pyridine] | 0.7 | – | 88 | 448
C1=C(c2c[nH]c3ccccc23)CCN(CCCCc2ccncc2)C1 [Example 3] | 5 | – | – | 398
C1=C(c2cccs2)CCN(CCCCc2ccncc2)C1 [Example 4, 4-[4-[3,6-Dihydro-4-(2-thienyl)-1(2H)-pyridinyl]-butyl]pyridine] | 1.2 | 690 | – | –
C1=C(c2ccccc2)CCN(CCCc2ccncc2)C1 [Example 5, 4-[3-(3,6-Dihydro-4-phenyl-1(2H)-pyridinyl)propyl]-pyridine] | 0.63 | – | 61 | –
C1=C(c2ccccc2)CCN(CCCCCc2ccncc2)C1 [Example 7, 4-[5-(3,6-Dihydro-4-phenyl-1(2H)-pyridinyl)pentyl]-pyridine] | 0.9 | – | – | –
C1=C(c2cccs2)CCN(CCCCc2cccnc2)C1 [Example 8, 3-[4-[3,6-Dihydro-4-(2-thienyl)-1(2H)-pyridinyl]-butyl]pyridine] | 0.66 | – | 71 | 1290
O=C(CCCN1CC=C(c2ccccc2)CC1)c1cccnc1 [Example 9, 4-(3,6-Dihydro-4-phenyl-1(2H)-pyridinyl)-1-(3-pyridinyl)-1-butanone] | 1.1 | – | 50 | –
O=C(CCCN1CC=C(c2ccccc2)CC1)c1ccncc1 [Example 10, 4-(3,6-Dihydro-4-phenyl-1(2H)-pyridinyl)-1-(4-pyridinyl)-1-butanone] | 1 | – | 57 | 408
C1=C(c2ccccc2)CCN(CCCCc2cccnc2)C1 [Example 12, 3-[4-(3,6-Dihydro-4-phenyl-1(2H)-pyridinyl)butyl]-pyridine] | 0.28 | – | 80 | 170
C1=C(c2ccccc2)CCN(CCCCc2cnc3ccccc3c2)C1 [Example 13, 3-[4-(3,6-Dihydro-4-phenyl-1(2H)-pyridinyl)butyl]-quinoline] | 0.37 | 46 | 100 | –
C1=C(c2cccs2)CCN(CCCCc2cnc3ccccc3c2)C1 [Example 14] | 1.5 | – | – | –
C1=C(c2ccccn2)CCN(CCCCc2cnc3ccccc3c2)C1 [Example 15, 3-[4-[3,6-Dihydro-4-(2-pyridinyl)-1(2H)-pyridinyl]-butyl]quinoline] | 0.14 | – | – | –

Source: US5118691A, “Substituted tetrahydropyridines as central nervous system agents” (Warner-Lambert Co., priority 1991, dated 1992)
